{
  "source": "ChEMBL document CHEMBL2203073",
  "about": "“Synthesis and biological evaluation of 4,4-dimethyl lithocholic acid derivatives as novel inhibitors of protein tyrosine phosphatase 1B” (Bioorg Med Chem Lett, 2012)",
  "key": {"[1]": {"experiment": "Selectivity index, ratio of IC50 for TCPTP to PTP1B"}, "[2]": {"molecular_target": "T1, Tyrosine-protein phosphatase non-receptor type 2 (Homo sapiens, UniProt P17706)", "T1 sequence (P17706 whole entry)": "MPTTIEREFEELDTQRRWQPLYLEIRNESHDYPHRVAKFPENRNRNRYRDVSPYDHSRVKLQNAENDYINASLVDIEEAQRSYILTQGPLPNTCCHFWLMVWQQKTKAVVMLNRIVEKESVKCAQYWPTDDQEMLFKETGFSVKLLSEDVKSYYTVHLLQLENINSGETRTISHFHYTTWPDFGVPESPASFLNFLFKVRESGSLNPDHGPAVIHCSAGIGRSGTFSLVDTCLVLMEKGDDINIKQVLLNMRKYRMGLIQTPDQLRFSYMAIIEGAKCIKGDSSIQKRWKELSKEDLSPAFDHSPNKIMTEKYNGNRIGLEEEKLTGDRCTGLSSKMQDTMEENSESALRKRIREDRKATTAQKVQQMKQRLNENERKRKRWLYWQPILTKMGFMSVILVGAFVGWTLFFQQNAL", "experiment": "Inhibition of TCPTP by para-nitrophenyl phosphate release assay"}, "[3]": {"molecular_target": "T2, Tyrosine-protein phosphatase non-receptor type 1 (Homo sapiens, UniProt P18031)", "T2 sequence (P18031 whole entry)": "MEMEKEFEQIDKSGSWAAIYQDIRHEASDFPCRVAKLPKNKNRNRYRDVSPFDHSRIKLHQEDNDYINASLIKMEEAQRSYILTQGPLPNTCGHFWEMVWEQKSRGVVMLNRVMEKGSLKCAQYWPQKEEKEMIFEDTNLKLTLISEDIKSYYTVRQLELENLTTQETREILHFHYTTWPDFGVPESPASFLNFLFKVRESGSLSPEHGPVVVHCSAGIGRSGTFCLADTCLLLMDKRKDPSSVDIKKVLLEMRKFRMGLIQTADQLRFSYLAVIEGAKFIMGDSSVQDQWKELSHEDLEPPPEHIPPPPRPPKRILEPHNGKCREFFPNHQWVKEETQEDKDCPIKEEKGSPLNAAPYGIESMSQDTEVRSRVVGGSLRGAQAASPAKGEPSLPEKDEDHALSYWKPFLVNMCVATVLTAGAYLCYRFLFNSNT", "experiment": "Inhibition of PTP1B by para-nitrophenyl phosphate release assay"}, "[4]": {"molecular_target": "T2, Tyrosine-protein phosphatase non-receptor type 1", "experiment": "Competitive inhibition of PTP1B by para-nitrophenyl phosphate release assay"}, "[5]": {"molecular_target": "Receptor-type tyrosine-protein phosphatase F (Homo sapiens) (UniProt P10586)", "sequence (P10586 whole entry)": "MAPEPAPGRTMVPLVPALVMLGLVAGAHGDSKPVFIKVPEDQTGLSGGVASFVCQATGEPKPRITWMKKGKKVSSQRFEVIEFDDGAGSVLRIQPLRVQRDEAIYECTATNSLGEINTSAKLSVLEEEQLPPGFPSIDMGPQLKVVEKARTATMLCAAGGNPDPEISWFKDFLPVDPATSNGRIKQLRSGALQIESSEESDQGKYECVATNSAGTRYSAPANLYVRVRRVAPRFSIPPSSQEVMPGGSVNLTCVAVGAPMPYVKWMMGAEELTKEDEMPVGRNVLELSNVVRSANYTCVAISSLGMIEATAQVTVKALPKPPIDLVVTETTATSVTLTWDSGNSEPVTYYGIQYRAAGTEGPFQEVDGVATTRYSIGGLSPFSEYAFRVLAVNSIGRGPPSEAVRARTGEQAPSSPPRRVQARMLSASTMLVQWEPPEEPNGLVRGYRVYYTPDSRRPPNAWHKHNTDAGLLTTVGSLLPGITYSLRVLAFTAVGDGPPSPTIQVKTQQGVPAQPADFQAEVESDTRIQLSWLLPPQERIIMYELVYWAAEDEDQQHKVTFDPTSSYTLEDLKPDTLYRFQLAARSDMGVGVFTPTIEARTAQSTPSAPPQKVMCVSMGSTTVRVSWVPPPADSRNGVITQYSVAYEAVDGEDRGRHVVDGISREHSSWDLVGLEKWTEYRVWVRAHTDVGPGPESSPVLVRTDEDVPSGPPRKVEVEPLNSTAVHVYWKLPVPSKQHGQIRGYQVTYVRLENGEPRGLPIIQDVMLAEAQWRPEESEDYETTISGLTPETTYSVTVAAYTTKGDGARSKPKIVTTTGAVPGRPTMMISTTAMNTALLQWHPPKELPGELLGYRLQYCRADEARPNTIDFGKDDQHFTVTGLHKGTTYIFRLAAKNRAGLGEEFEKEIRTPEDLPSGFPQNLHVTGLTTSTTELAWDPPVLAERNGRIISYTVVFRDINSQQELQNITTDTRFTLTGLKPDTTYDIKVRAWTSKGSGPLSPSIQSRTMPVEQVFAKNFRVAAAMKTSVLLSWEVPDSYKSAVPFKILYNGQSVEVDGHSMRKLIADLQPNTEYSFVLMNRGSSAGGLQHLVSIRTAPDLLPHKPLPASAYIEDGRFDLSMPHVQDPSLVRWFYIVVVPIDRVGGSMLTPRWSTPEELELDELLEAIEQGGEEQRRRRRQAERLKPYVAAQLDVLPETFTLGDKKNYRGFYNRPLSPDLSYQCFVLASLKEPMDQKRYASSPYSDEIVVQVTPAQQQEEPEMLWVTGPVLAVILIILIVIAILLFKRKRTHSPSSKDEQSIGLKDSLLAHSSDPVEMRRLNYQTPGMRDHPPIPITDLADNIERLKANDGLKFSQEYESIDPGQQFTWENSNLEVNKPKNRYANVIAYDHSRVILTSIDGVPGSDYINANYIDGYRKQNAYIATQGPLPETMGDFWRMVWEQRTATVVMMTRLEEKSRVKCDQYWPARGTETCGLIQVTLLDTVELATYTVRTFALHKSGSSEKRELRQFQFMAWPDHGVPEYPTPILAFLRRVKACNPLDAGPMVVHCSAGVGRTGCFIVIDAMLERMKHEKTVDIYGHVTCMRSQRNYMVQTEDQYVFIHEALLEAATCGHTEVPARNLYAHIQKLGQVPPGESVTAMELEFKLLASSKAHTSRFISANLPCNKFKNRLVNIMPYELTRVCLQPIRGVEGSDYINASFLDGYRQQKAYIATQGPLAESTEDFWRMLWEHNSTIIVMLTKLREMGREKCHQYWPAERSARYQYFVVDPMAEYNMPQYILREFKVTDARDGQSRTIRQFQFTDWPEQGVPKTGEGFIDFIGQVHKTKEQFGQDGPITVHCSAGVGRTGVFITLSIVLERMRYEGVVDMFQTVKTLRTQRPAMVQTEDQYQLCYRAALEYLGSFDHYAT", "experiment": "Inhibition of LAR at 40 uM"}, "[6]": {"molecular_target": "T3, Tyrosine-protein phosphatase non-receptor type 11 (Homo sapiens) (UniProt Q06124)", "T3 sequence (whole entry)": "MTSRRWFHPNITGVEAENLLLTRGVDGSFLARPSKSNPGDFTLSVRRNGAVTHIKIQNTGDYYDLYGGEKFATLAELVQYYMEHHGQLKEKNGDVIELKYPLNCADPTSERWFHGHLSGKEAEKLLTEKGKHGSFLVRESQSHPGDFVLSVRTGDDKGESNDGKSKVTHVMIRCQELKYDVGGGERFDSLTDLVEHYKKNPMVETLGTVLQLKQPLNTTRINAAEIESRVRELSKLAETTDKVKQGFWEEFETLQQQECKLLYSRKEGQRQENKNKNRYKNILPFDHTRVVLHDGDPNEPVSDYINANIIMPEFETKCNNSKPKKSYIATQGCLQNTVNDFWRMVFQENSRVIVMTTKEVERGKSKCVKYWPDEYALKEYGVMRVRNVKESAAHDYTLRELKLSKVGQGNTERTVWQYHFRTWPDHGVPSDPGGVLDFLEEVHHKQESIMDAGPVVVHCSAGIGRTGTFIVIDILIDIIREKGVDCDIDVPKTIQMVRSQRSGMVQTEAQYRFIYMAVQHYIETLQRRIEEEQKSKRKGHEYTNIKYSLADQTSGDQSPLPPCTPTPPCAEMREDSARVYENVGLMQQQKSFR", "experiment": "Inhibition of SHP2 at 40 uM"}, "[7]": {"molecular_target": "Tyrosine-protein phosphatase non-receptor type 6 (Homo sapiens) (UniProt P29350)", "sequence (P29350 whole entry)": "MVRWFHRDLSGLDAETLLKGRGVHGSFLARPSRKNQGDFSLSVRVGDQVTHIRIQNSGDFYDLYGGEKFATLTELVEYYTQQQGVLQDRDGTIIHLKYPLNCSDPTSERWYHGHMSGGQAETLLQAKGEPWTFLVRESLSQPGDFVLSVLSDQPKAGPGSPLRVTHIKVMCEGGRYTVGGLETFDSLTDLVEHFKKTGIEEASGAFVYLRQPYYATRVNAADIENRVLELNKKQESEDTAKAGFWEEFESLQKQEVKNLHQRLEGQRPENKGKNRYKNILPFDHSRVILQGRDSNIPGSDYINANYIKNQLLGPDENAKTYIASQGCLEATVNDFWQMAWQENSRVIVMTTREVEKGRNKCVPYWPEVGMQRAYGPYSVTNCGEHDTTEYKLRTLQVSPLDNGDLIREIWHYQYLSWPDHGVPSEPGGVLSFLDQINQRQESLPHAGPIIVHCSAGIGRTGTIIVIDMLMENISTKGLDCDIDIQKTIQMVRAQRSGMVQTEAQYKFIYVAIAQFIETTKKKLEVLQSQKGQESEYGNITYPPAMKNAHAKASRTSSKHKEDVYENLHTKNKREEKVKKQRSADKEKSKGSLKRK", "experiment": "Inhibition of SHP1 at 40 uM"}},
  "note": "pIC50, pKi: −log10 of the molar value.",
  "data": [
    {"molecule": "C[C@H](CCC(=O)O)[C@H]1CC[C@H]2[C@@H]3CC=C4C(C)(C)c5ncncc5C[C@]4(C)[C@H]3CC[C@]12C", "values": [
      {"measurement": "Ratio IC50", "setting": "[1]", "value": 0.9},
      {"measurement": "pIC50", "setting": "[2]", "value": 4.97},
      {"measurement": "pIC50", "setting": "[3]", "value": 4.93}
    ]},
    {"molecule": "O=C(O)C(=O)c1ccc(OCc2ccc(COc3ccc(C(=O)C(=O)O)cc3)cc2)cc1", "values": [
      {"measurement": "Ratio IC50", "setting": "[1]", "value": 1.6}
    ]},
    {"molecule": "C[C@H](CCC(=O)O)[C@H]1CC[C@H]2[C@@H]3CC=C4C(C)(C)c5nc(N)ncc5C[C@]4(C)[C@H]3CC[C@]12C", "values": [
      {"measurement": "Ratio IC50", "setting": "[1]", "value": 5},
      {"measurement": "pIC50", "setting": "[2]", "value": 4.77},
      {"measurement": "pIC50", "setting": "[3]", "value": 5.44}
    ]},
    {"molecule": "CCOC(=O)CC[C@@H](C)[C@H]1CC[C@H]2[C@@H]3CC=C4C(C)(C)c5[nH]ncc5C[C@]4(C)[C@H]3CC[C@]12C", "values": [
      {"measurement": "Ratio IC50", "setting": "[1]", "value": "> 2.1"},
      {"measurement": "pIC50", "setting": "[2]", "value": "< 4.40"},
      {"measurement": "pIC50", "setting": "[3]", "value": 4.72}
    ]},
    {"molecule": "C[C@H](CCC(=O)O)[C@H]1CC[C@H]2[C@@H]3CC=C4C(C)(C)c5nnsc5C[C@]4(C)[C@H]3CC[C@]12C", "values": [
      {"measurement": "Ratio IC50", "setting": "[1]", "value": 0.9},
      {"measurement": "pIC50", "setting": "[2]", "value": 4.44},
      {"measurement": "pIC50", "setting": "[3]", "value": 4.40}
    ]},
    {"molecule": "C[C@H](CCC(=O)O)[C@H]1CC[C@H]2[C@@H]3CC=C4C(C)(C)c5c(cnn5-c5ccccc5)C[C@]4(C)[C@H]3CC[C@]12C", "values": [
      {"measurement": "pKi", "setting": "[4]", "value": 6.08},
      {"measurement": "inhibition", "setting": "[5]", "value": 26.9, "unit": "%"},
      {"measurement": "inhibition", "setting": "[6]", "value": 9.36, "unit": "%"},
      {"measurement": "inhibition", "setting": "[7]", "value": 0.97, "unit": "%"},
      {"measurement": "Ratio IC50", "setting": "[1]", "value": 14.1},
      {"measurement": "pIC50", "setting": "[2]", "value": 4.64},
      {"measurement": "pIC50", "setting": "[3]", "value": 5.79}
    ]},
    {"molecule": "C[C@H](CCC(=O)O)[C@H]1CC[C@H]2[C@@H]3CC[C@@H]4C[C@H](O)CC[C@]4(C)[C@H]3CC[C@]12C", "note": "[LITHOCHOLIC ACID]", "values": [
      {"measurement": "Ratio IC50", "setting": "[1]", "value": 1.6},
      {"measurement": "pIC50", "setting": "[2]", "value": 4.69},
      {"measurement": "pIC50", "setting": "[3]", "value": 4.89}
    ]},
    {"molecule": "C[C@H](CCC(=O)O)[C@H]1CC[C@H]2[C@@H]3CC=C4C(C)(C)c5[nH]ncc5C[C@]4(C)[C@H]3CC[C@]12C", "values": [
      {"measurement": "Ratio IC50", "setting": "[1]", "value": 4.7},
      {"measurement": "pIC50", "setting": "[2]", "value": 4.72},
      {"measurement": "pIC50", "setting": "[3]", "value": 5.39}
    ]},
    {"molecule": "COC(=O)CC[C@@H](C)[C@H]1CC[C@H]2[C@@H]3CC=C4C(C)(C)c5nccnc5C[C@]4(C)[C@H]3CC[C@]12C", "values": [
      {"measurement": "Ratio IC50", "setting": "[1]", "value": "> 1.4"},
      {"measurement": "pIC50", "setting": "[2]", "value": "< 4.40"},
      {"measurement": "pIC50", "setting": "[3]", "value": 4.55}
    ]},
    {"molecule": "C[C@H](CCC(=O)O)[C@H]1CC[C@H]2[C@@H]3CC=C4C(C)(C)c5[nH]nc(C(=O)O)c5C[C@]4(C)[C@H]3CC[C@]12C", "values": [
      {"measurement": "Ratio IC50", "setting": "[1]", "value": 0.9},
      {"measurement": "pIC50", "setting": "[2]", "value": 5.05},
      {"measurement": "pIC50", "setting": "[3]", "value": 5.03}
    ]},
    {"molecule": "COC(=O)CC[C@@H](C)[C@H]1CC[C@H]2[C@@H]3CC=C4C(C)(C)c5nc(N)sc5C[C@]4(C)[C@H]3CC[C@]12C", "values": [
      {"measurement": "Ratio IC50", "setting": "[1]", "value": "> 4.4"},
      {"measurement": "pIC50", "setting": "[2]", "value": "< 4.40"},
      {"measurement": "pIC50", "setting": "[3]", "value": 5.04}
    ]},
    {"molecule": "C[C@H](CCC(=O)O)[C@H]1CC[C@H]2[C@@H]3CC=C4C(C)(C)C(=O)CC[C@]4(C)[C@H]3CC[C@]12C", "values": [
      {"measurement": "pIC50", "setting": "[2]", "value": "< 4.30"},
      {"measurement": "pIC50", "setting": "[3]", "value": 4.88}
    ]},
    {"molecule": "Cc1ncc2c(n1)C(C)(C)C1=CC[C@H]3[C@@H]4CC[C@H]([C@H](C)CCC(=O)O)[C@@]4(C)CC[C@@H]3[C@@]1(C)C2", "values": [
      {"measurement": "Ratio IC50", "setting": "[1]", "value": 1.2},
      {"measurement": "pIC50", "setting": "[2]", "value": 4.94},
      {"measurement": "pIC50", "setting": "[3]", "value": 5.04}
    ]},
    {"molecule": "COC(=O)CC[C@@H](C)[C@H]1CC[C@H]2[C@@H]3CC=C4C(C)(C)C(=O)CC[C@]4(C)[C@H]3CC[C@]12C", "values": [
      {"measurement": "Ratio IC50", "setting": "[1]", "value": "> 3.8"},
      {"measurement": "pIC50", "setting": "[2]", "value": "< 4.30"},
      {"measurement": "pIC50", "setting": "[3]", "value": 4.88}
    ]},
    {"molecule": "CCOC(=O)CC[C@@H](C)[C@H]1CC[C@H]2[C@@H]3CC=C4C(C)(C)c5nc(N)ncc5C[C@]4(C)[C@H]3CC[C@]12C", "values": [
      {"measurement": "pIC50", "setting": "[2]", "value": "< 4.40"},
      {"measurement": "pIC50", "setting": "[3]", "value": "< 4.40"}
    ]},
    {"molecule": "C[C@H](CCC(=O)O)[C@H]1CC[C@H]2[C@@H]3CC=C4C(C)(C)c5nccnc5C[C@]4(C)[C@H]3CC[C@]12C", "values": [
      {"measurement": "Ratio IC50", "setting": "[1]", "value": 2.8},
      {"measurement": "pIC50", "setting": "[2]", "value": 4.62},
      {"measurement": "pIC50", "setting": "[3]", "value": 5.06}
    ]},
    {"molecule": "C[C@H](CCC(=O)O)[C@H]1CC[C@H]2[C@@H]3CC=C4C(C)(C)c5nc(N)sc5C[C@]4(C)[C@H]3CC[C@]12C", "values": [
      {"measurement": "Ratio IC50", "setting": "[1]", "value": 2},
      {"measurement": "pIC50", "setting": "[2]", "value": 4.96},
      {"measurement": "pIC50", "setting": "[3]", "value": 5.25}
    ]},
    {"molecule": "C[C@H](CCC(=O)O)[C@H]1CC[C@H]2[C@@H]3CC=C4C(C)(C)c5oncc5C[C@]4(C)[C@H]3CC[C@]12C", "values": [
      {"measurement": "Ratio IC50", "setting": "[1]", "value": 5.1},
      {"measurement": "pIC50", "setting": "[2]", "value": 4.33},
      {"measurement": "pIC50", "setting": "[3]", "value": 5.04}
    ]}
  ]
}
